Experimental data as given in PubChem BioAssay (NCI).
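A five-concentration, 48-hour dose response in 96-well plates underlies each endpoint, interpolated linearly between surrounding concentrations. GI50: concentration for 50% inhibition of growth. TGI denotes the concentration required for complete inhibition of growth.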

Experiments:
Assay in all cases: NCI tumour cell line growth inhibition, 48 h
[1] = test system: 786-0 renal
[2] = test system: NCI-H226 lung
[3] = test system: SF-295 CNS
[4] = test system: OVCAR-3 ovarian
[5] = test system: MALME-3M melanoma
[6] = test system: RXF 393 renal
[7] = test system: HT29 colon
[8] = test system: PC-3 prostate
[9] = test system: SK-MEL-2 melanoma
[10] = test system: NCI-H522 lung
[11] = test system: MCF7 breast
[12] = test system: T-47D breast
[13] = test system: SF-539 CNS
[14] = test system: NCI-H460 lung
[15] = test system: OVCAR-4 ovarian
[16] = test system: BT-549 breast
[17] = test system: DU-145 prostate
[18] = test system: CCRF-CEM leukemia
[19] = test system: OVCAR-8 ovarian
[20] = test system: A498 renal
[21] = test system: UACC-62 melanoma
[22] = test system: ACHN renal
[23] = test system: RPMI-8226 leukemia
[24] = test system: SR leukemia
[25] = test system: HCT-15 colon
[26] = test system: MDA-MB-435
[27] = test system: MDA-MB-231 breast
[28] = test system: COLO 205 colon

SMILES: COc1cc2c3c(n(CCCNCC4CC4)c(=O)c2cc1OC)-c1cc2c(cc1C3=O)OCO2
- GI50 [1]: 1440 nM
- TGI [1]: 2810 nM
- GI50 [2]: 10700 nM
- TGI [2]: 28700 nM
- GI50 [3]: 307 nM
- TGI [3]: 1530 nM
- GI50 [4]: 1420 nM
- TGI [4]: 2840 nM
- GI50 [5]: 1490 nM
- TGI [5]: 2970 nM
- GI50 [6]: 1490 nM
- TGI [6]: 2830 nM
- GI50 [7]: 1060 nM
- TGI [7]: 2320 nM
- GI50 [8]: 1210 nM
- TGI [8]: 2840 nM
- GI50 [9]: 20800 nM
- TGI [9]: 35200 nM
- GI50 [10]: 492 nM
- TGI [10]: 2100 nM
- GI50 [11]: 95.3 nM
- TGI [11]: 1690 nM
- GI50 [12]: 7130 nM
- TGI [12]: 25700 nM
- GI50 [13]: 763 nM
- TGI [13]: 2080 nM
- GI50 [14]: 243 nM
- TGI [14]: 1460 nM
- GI50 [15]: 1730 nM
- TGI [15]: 3350 nM
- GI50 [16]: 12700 nM
- TGI [16]: 26700 nM
- GI50 [17]: 759 nM
- TGI [17]: 2110 nM
- GI50 [18]: 82 nM
- TGI [18]: 2700 nM
- GI50 [19]: 1110 nM
- TGI [19]: 2660 nM
- GI50 [20]: 12600 nM
- TGI [20]: 25400 nM
- GI50 [21]: 2860 nM
- TGI [21]: 21100 nM
- GI50 [22]: 439 nM
- TGI [22]: 1570 nM
- GI50 [23]: 636 nM
- TGI [23]: 3310 nM
- GI50 [24]: 70.8 nM
- TGI [24]: 1230 nM
- GI50 [25]: 1250 nM
- TGI [25]: 2800 nM
- GI50 [26]: 1290 nM
- TGI [26]: 2570 nM
- GI50 [27]: 1440 nM
- TGI [27]: 3110 nM
- GI50 [28]: 1110 nM
- TGI [28]: 4210 nM
